# Measured values reported in patent US20120171123A1, “USES AND COMPOSITIONS FOR TREATMENT OF RHEUMATOID ARTHRITIS” (priority 2006, published 2012).
# Test system: MTX-naïve adult patients with active, early RA (<3 years)
# Assay: Study J: radiographic progression (TSS, joint erosion, joint space narrowing)
# Assay type: in vivo, human
# Set-up: key to mean change from baseline in TSS / Mean change in TSS / TSS after 2 years / change in TSS over 2 years / mean change in TSS from baseline / Mean ΔTSS at 1 year / Mean ΔTSS Yr 1-Yr 2: modified total Sharp score, 0-398 scale
# Conditions: for Annualized rate of radiographic progression (ΔTSS): all pts in treatment arm
# From the text: The co-primary endpoints, comparing MTX alone with the combination at 1 year, were the ACR50 response (using non-responder imputation), and inhibition of radiographic progression, as measured by change in total Sharp score (TSS). In this study, the term “Major Clinical Response” (MCR) meant a continuous ACR70 response for 6 or more consecutive months.
# At 1 and 2 years, the American College of Rheumatology (ACR) responses (ACR20, ACR50, and ACR70), the Disease Activity Score 28 (DAS28), and the change (Δ) in Total Sharp Score (TSS) were determined for all patients. Results were analyzed for the intention-to-treat (ITT) population using imputation for missing data. Clinical remission was defined as DAS28<2.6. The mean ΔTSS values at 1 year and 2 years (N=791) were determined for patients in each ACR response category (ACR20/50/70) and for patients with DAS28<2.6
# Radiographic progression was measured by Total Sharp Score (TSS) at baseline, and 1 and 2 years in the intention to treat population (ITT) using imputation for missing data. In this analysis, patients were divided into 1 of 2 categories by disease duration at baseline: <6 months (Group 1) or 6 months to 3 years (Group 2). Mean changes in TSS were reported for both groups by each of the 3 treatment arms from baseline to Year 1 and from Year 1 to Year 2.
# Radiographic progression was assessed by mean change from baseline in Total Sharp Score (TSS) and stratified into those with (ΔTSS>0.5) and without (Δ≦TSS 0.5). Patients were categorized as either having radiographic progression at 1 year (ΔTSS>0.5) or not (Δ≦TSS 0.5). A logistic regression model was used to identify predictors of radiographic disease progression by testing several baseline characteristics, including age, disease duration, RF status, TJC, SJC, joint erosions, and CRP. For analyses of CRP, patients were categorized as normal (CRP≦0.8 mg/dL) or abnormal (CRP>0.8 mg/dL).
# Mean change from baseline in Total Sharp Score (TSS) was measured at 6 months, 1 year, and 2 years in the intention-to-treat (ITT) population using imputation for missing data. Patients were classified as having radiographic progression (mean change in TSS>0.5) or without radiographic progression (ΔTSS≦0.5). Patients with inadequate data were excluded from this analysis.
# Patients in the Ada+MTX and the MTX arms were classified according to level of clinical response (non-responder (<ACR20), ACR20, ACR50, or ACR70) and radiographic progression (Yes or No (ΔTSS≦0.5)). The ΔTSS was analyzed overall, and for ACR subgroups. This included determination of mean ΔTSS and probability plots.
# Study J was a 2-year, double-blind, active comparator-controlled, Phase III study. […] For each patient, radiographs of hands and feet were taken at baseline, 6 months, 1 year and 2 years and evaluated for joint erosions (JE) and joint space narrowing (JSN) by 2 blinded radiologists. Changes from baseline in the modified total Sharp score (TSS, 0-398) were calculated for patients in each treatment arm. Cumulative probability plots were generated by estimating the probability of exceeding a given change in TSS. For each treatment, we calculated the percentages of patients whose ΔTSS exceeded specified thresholds, and the probability of having a given ΔTSS (using cumulative probability plots). For each of 4 cumulative probability ranges, 0-10%, 10-50%, 50-90% and 90-100% (higher numbered ranges=greater ΔTSS), mean ΔTSS values were calculated. In previous reports, Study J radiographic analyses employed linear imputation. In the present analysis, only observed data were employed, with no imputation.
# [1] = Group 1, BL disease duration <6 mos (n=448)
# [2] = Group 2, BL disease duration 6 mos to 3 yrs (n=333)
# [3] = disease duration 6 months to 3 years
# [4] = disease duration 6 months-3 years (n=333)
compound,measurement,setting,value
"CN(Cc1cnc2nc(N)nc(N)c2n1)c1ccc(C(=O)N[C@@H](CCC(=O)O)C(=O)O)cc1 [mtx alone, methotrexate]",Annualized rate of radiographic progression (ΔTSS),0-6 mos,7.0 Sharp Score Units per Year
same,Annualized rate of radiographic progression (ΔTSS),1-2 yrs,4.7 Sharp Score Units per Year
same,patients with ΔTSS≦0.5 among those achieving DAS28 remission,1 year,47%
same,Mean change in TSS,"1 year, ACR20 responders",3.9
same,mean change in JE score,"1 year, ACR20 responders",2.0
same,mean change in JSN,"1 year, ACR20 responders",1.4
same,Mean change in TSS,"1 year, ACR50 responders",3.2
same,mean change in JE score,"1 year, ACR50 responders",2.2
same,mean change in JSN,"1 year, ACR50 responders",1.0
same,Mean change in TSS,"1 year, ACR70 responders",2.7
same,mean change in JE score,"1 year, ACR70 responders",1.6
same,mean change in JSN,"1 year, ACR70 responders",1.1
same,patients with no radiographic progression,"1 year, abnormal baseline CRP normalized at 1 year",33%
same,patients with no radiographic progression,"1 year, elevated CRP at both baseline and 1 year",31%
same,patients with no disease progression (ΔTSS≦0.5),"1 year, patients with CRP and X-rays available",38%
same,Mean change in TSS,"1 year, patients with DAS28<2.6",1.9
same,Mean change in TSS,"1 year, patients with DAS28<2.6, listed as MTX alone",2.8
same,% of patients with >4 change TSS,2 years,41.3%
same,% of patients with >10 change TSS,2 years,23.3%
same,% of patients with >20 change TSS,2 years,7%
same,patients with no radiographic progression (change in TSS ≦0.5),2 years,34%
same,patients with ΔTSS≦0.5 among those achieving DAS28 remission,2 years,47%
same,Mean change TSS in radiographic progressors (ΔTSS > 0.5),"2 years, ACR20 responders",9.4
same,mean change in JE score,"2 years, ACR20 responders",3.6
same,mean change in JSN,"2 years, ACR20 responders",2.3
same,mean change in TSS from baseline,"2 years, ACR20 responders",5.5
same,mean change in TSS from baseline,"2 years, ACR20 responders, listed as MTX alone",5.8
same,Mean change TSS in radiographic progressors (ΔTSS > 0.5),"2 years, ACR50 responders",8.5
same,mean change in JE score,"2 years, ACR50 responders",3.0
same,mean change in JSN,"2 years, ACR50 responders",1.8
same,mean change in TSS from baseline,"2 years, ACR50 responders",4.9
same,Mean change TSS in radiographic progressors (ΔTSS > 0.5),"2 years, ACR70 responders",7.5
same,mean change in JE score,"2 years, ACR70 responders",2.6
same,mean change in JSN,"2 years, ACR70 responders",1.4
same,mean change in TSS from baseline,"2 years, ACR70 responders",4.1
same,Mean change in TSS,"2 years, patients with DAS28<2.6",2.8
same,Mean change in TSS,"2 years, patients with DAS28<2.6, listed as MTX alone",1.9
same,"Frequency of radiographic progression (ΔTSS > 0.5), % of patients","2 years, ACR20 responders, observed data",62%
same,"Frequency of radiographic progression (ΔTSS > 0.5), % of patients","2 years, ACR50 responders, observed data",60%
same,"Frequency of radiographic progression (ΔTSS > 0.5), % of patients","2 years, ACR70 responders, observed data",57%
same,Mean change TSS in radiographic progressors (ΔTSS > 0.5),"2 years, Non-responder (<ACR20)",15.5
same,"Frequency of radiographic progression (ΔTSS > 0.5), % of patients","2 years, Non-responder (<ACR20), observed data",75%
same,Mean change in TSS,"2 years, all points (0-100), observed data",6.4
same,Mean change in TSS,"2 years, cumulative probability range 0-10",−3.9
same,Mean change in TSS,"2 years, cumulative probability range 10-50",0.5
same,Mean change in TSS,"2 years, cumulative probability range 50-90",7.6
same,Mean change in TSS,"2 years, cumulative probability range 90-100",31.4
same,% of patients with >4 change TSS,6 months,0%
same,% of patients with >10 change TSS,6 months,1.7%
same,% of patients with >20 change TSS,6 months,2.3%
same,patients with no radiographic progression,6 months,51%
same,Mean change TSS in radiographic progressors (ΔTSS > 0.5),"6 months, ACR20 responders",4.8
same,"Frequency of radiographic progression (ΔTSS > 0.5), % of patients","6 months, ACR20 responders, observed data",55%
same,Mean change TSS in radiographic progressors (ΔTSS > 0.5),"6 months, ACR50 responders",3.8
same,"Frequency of radiographic progression (ΔTSS > 0.5), % of patients","6 months, ACR50 responders, observed data",51%
same,Mean change TSS in radiographic progressors (ΔTSS > 0.5),"6 months, ACR70 responders",3.4
same,"Frequency of radiographic progression (ΔTSS > 0.5), % of patients","6 months, ACR70 responders, observed data",49%
same,Mean change TSS in radiographic progressors (ΔTSS > 0.5),"6 months, Non-responder (<ACR20)",10.8
same,"Frequency of radiographic progression (ΔTSS > 0.5), % of patients","6 months, Non-responder (<ACR20), observed data",59%
same,Mean change in TSS,"6 months, all points (0-100), observed data",3.4
same,Mean change in TSS,"6 months, cumulative probability range 0-10",−2.0
same,Mean change in TSS,"6 months, cumulative probability range 10-50",0.2
same,Mean change in TSS,"6 months, cumulative probability range 50-90",4.4
same,Mean change in TSS,"6 months, cumulative probability range 90-100",16.5
same,Annualized rate of radiographic progression (ΔTSS),6 mos-1 yr,4.4 Sharp Score Units per Year
same,Mean change in TSS,"26 weeks, observed data",3.4
same,Mean change in TSS,"52 weeks, observed data",5.2
same,Mean change in TSS,"104 weeks, observed data",6.4
same,Patients with No Radiographic Progression at 1 Year,CRP (BL and Year 1) Abnormal to Normal,33%
same,Patients with No Radiographic Progression at 1 Year,CRP (BL and Year 1) Always Normal,86%
same,Patients with No Radiographic Progression at 1 Year,CRP (BL and Year 1) Never Normal,31%
same,Mean ΔTSS Yr 1-Yr 2,[1],5.8
same,Mean ΔTSS at 1 year,[1],7.4
same,Mean ΔTSS Yr 1-Yr 2,[2],3.4
same,Mean ΔTSS at 1 year,[2],3.8
same,"No Progression at Month 6, %",Study J,51%
same,"No Progression at Month 6, patients/total",Study J,129/252
same,"No Progression at Month 6 and Year 2, %",Study J,61%
same,"No Progression at Month 6 and Year 2, patients/Month-6 non-progressors",Study J,79/129
same,"Yr-2 Non-P, %",among Mo-6 Non-Progressors,61%
same,"Yr-2 Non-P, number of patients",among Mo-6 Non-Progressors,79
same,"Yr-2 Prog, %",among Mo-6 Non-Progressors,39%
same,"Yr-2 Prog, number of patients",among Mo-6 Non-Progressors,50
same,"Yr-2 Non-P, %",among Mo-6 Progressors,6%
same,"Yr-2 Non-P, number of patients",among Mo-6 Progressors,7
same,"Yr-2 Prog, %",among Mo-6 Progressors,94%
same,"Yr-2 Prog, number of patients",among Mo-6 Progressors,116
same,TSS after 2 years,[3],32.2
same,change in TSS over 2 years,[3],7.2
same,mean change TSS during year 1,[4],3.8 sharp score units
same,mean change TSS during year 2,[4],3.4 sharp score units
same,TSS after 2 years,disease duration <6 months,32.4
same,change in TSS over 2 years,disease duration <6 months,13.2
same,mean change TSS during year 1,disease duration <6 months,7.4 sharp score units
same,mean change TSS during year 2,disease duration <6 months,5.8 sharp score units
same,"rate of change in TSS in ACR20 responders, relative to combination therapy",in vivo,7 times
same,"Mo-6 Non-Progressors, % of arm",no progression = ΔTSS≦0.5,51%
same,"Mo-6 Non-Progressors, number of patients",no progression = ΔTSS≦0.5,129
same,patients with no progression at year 2,no progression at month 6,61%
same,"Mo-6 Progressors, % of arm",progression = ΔTSS>0.5,49%
same,"Mo-6 Progressors, number of patients",progression = ΔTSS>0.5,123
same,patients with no progression at year 2,progression at month 6,6%
same,mean change from baseline in TSS,"week 26, ITT with imputation",3.5
same,mean change from baseline in TSS,"week 52 (1 year), ITT with imputation",5.7
same,mean change from baseline in TSS,"week 104 (2 years), ITT with imputation",10.4
